Assay results published in patent US10995322B2, “Processes to prepare elongated 2-ketoacids and C5-C10 compounds therefrom via genetic modifications to microbial metabolic pathways” (priority 2016, dated 2021).

Columns and labels:
[1] = target: Enterobacter cloacae isopropylmalate synthase (Gene Accession No. WP_014830637, SEQ ID NO: 2) variant 1460, D348E/D350E/M353L/Q355N/H97A/S139G/N167G/P169A/G462D (Enterobacter cloacae, UniProt A0A0H3CGL5, D348E/D350E/G462D/H97A/M353L/N167G/P169A/Q355N/S139G); conditions: pH 7.5, 30° C.
Sequence of Enterobacter cloacae isopropylmalate synthase (Gene Accession No. WP_014830637, SEQ ID NO: 2) variant 1460, D348E/D350E/M353L/Q355N/H97A/S139G/N167G/P169A/G462D (A0A0H3CGL5 entry or part of it D348E/D350E/G462D/H97A/M353L/N167G/P169A/Q355N/S139G): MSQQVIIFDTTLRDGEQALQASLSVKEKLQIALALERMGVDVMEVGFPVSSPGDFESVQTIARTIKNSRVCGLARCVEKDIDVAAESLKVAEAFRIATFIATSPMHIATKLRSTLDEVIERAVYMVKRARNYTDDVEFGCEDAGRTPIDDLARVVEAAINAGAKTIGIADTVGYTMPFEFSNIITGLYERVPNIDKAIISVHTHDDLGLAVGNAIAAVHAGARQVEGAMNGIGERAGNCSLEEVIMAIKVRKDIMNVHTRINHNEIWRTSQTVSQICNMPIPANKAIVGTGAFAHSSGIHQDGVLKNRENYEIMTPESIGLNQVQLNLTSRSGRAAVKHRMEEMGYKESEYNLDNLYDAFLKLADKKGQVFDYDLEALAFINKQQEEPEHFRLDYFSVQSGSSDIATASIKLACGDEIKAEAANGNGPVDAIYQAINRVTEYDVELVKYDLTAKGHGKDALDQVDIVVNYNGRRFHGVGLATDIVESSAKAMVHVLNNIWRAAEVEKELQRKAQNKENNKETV

[2] = target: Citrobacter freundii MGH 56 isopropylmalate synthase (Gene Accession No. KDF09799, SEQ ID NO: 1) variant 1409, H97A/S139G/N167G/P169A/G462D (Citrobacter freundii, UniProt A0A0D7LMP4, G462D/H97A/N167G/P169A/S139G); conditions: pH 7.5, 30° C.
Sequence of Citrobacter freundii MGH 56 isopropylmalate synthase (Gene Accession No. KDF09799, SEQ ID NO: 1) variant 1409, H97A/S139G/N167G/P169A/G462D (A0A0D7LMP4 entry or part of it G462D/H97A/N167G/P169A/S139G): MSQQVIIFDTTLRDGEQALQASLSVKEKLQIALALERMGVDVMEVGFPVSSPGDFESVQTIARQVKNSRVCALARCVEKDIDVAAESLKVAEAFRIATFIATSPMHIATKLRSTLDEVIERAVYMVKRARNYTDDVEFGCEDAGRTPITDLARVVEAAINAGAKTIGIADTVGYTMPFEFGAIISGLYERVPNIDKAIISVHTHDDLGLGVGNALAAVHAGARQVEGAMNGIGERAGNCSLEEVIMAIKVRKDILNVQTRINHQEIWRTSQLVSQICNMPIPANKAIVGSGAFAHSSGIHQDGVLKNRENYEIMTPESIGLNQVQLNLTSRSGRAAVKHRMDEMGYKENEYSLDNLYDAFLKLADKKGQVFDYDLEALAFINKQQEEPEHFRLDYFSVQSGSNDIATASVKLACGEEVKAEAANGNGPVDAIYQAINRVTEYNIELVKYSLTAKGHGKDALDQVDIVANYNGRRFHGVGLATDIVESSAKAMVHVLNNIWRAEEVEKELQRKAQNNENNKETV

[3] = target: Citrobacter freundii MGH 56 isopropylmalate synthase (Gene Accession No. KDF09799, SEQ ID NO: 1) variant 1467, G181A/A182G/G210A/A214S/H97A/S139G/N167G/P169A/G4 (Citrobacter freundii, UniProt A0A0D7LMP4, A182G/A214S/G181A/G210A/G462D/H97A/N167G/P169A/S139G); conditions: pH 7.5, 30° C.
Sequence of Citrobacter freundii MGH 56 isopropylmalate synthase (Gene Accession No. KDF09799, SEQ ID NO: 1) variant 1467, G181A/A182G/G210A/A214S/H97A/S139G/N167G/P169A/G4 (A0A0D7LMP4 entry or part of it A182G/A214S/G181A/G210A/G462D/H97A/N167G/P169A/S139G): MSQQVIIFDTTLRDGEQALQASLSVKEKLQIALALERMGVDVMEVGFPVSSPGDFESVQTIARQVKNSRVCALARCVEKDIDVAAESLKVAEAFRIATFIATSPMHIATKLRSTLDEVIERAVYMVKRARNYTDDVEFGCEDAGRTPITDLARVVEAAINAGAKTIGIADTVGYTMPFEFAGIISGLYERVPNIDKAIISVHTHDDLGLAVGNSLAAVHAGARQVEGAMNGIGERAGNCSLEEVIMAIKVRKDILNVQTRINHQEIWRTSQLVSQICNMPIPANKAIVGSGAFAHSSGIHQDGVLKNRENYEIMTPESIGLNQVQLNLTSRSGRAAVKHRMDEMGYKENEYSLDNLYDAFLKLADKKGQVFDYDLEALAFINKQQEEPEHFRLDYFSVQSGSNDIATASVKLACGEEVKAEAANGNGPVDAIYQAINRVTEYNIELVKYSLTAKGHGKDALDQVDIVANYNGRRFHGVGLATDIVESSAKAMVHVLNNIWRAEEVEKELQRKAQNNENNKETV

[4] = tested on: Citrobacter freundii MGH 56 isopropylmalate synthase (Gene Accession No. KDF09799, SEQ ID NO: 1) variant 1467, G181A/A182G/G210A/A214S/H97A/S139G/N167G/P169A/G4 …; conditions: 2-ketooctanoate
[5] = target: Enterobacter cloacae isopropylmalate synthase (Gene Accession No. WP_014830637, SEQ ID NO: 2) variant 1457, M255L/R260A/N264Q/H97A/S139G/N167G/P169A/G462D (Enterobacter cloacae, UniProt A0A0H3CGL5, G462D/H97A/M255L/N167G/N264Q/P169A/R260A/S139G); conditions: pH 7.5, 30° C.
Sequence of Enterobacter cloacae isopropylmalate synthase (Gene Accession No. WP_014830637, SEQ ID NO: 2) variant 1457, M255L/R260A/N264Q/H97A/S139G/N167G/P169A/G462D (A0A0H3CGL5 entry or part of it G462D/H97A/M255L/N167G/N264Q/P169A/R260A/S139G): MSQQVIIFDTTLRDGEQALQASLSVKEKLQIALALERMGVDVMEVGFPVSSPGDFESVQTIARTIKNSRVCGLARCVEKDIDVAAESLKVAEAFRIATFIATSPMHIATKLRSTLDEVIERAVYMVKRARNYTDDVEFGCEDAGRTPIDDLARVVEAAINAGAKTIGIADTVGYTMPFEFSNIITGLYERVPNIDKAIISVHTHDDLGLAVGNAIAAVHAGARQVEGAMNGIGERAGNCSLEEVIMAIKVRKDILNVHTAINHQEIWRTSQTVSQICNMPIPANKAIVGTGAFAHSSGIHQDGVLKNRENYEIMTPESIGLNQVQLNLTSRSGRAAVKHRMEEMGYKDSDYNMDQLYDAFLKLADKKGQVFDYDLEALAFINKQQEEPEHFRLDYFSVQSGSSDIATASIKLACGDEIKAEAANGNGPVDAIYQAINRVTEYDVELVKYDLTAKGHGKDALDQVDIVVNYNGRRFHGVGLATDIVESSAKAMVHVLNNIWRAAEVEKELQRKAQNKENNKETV

[6] = target: Enterobacter cloacae isopropylmalate synthase (Gene Accession No. WP_014830637, SEQ ID NO: 2) variant 1414, H97A/S139G/N167G/P169A/G462D (Enterobacter cloacae, UniProt A0A0H3CGL5, G462D/H97A/N167G/P169A/S139G); conditions: pH 7.5, 30° C.
Sequence of Enterobacter cloacae isopropylmalate synthase (Gene Accession No. WP_014830637, SEQ ID NO: 2) variant 1414, H97A/S139G/N167G/P169A/G462D (A0A0H3CGL5 entry or part of it G462D/H97A/N167G/P169A/S139G): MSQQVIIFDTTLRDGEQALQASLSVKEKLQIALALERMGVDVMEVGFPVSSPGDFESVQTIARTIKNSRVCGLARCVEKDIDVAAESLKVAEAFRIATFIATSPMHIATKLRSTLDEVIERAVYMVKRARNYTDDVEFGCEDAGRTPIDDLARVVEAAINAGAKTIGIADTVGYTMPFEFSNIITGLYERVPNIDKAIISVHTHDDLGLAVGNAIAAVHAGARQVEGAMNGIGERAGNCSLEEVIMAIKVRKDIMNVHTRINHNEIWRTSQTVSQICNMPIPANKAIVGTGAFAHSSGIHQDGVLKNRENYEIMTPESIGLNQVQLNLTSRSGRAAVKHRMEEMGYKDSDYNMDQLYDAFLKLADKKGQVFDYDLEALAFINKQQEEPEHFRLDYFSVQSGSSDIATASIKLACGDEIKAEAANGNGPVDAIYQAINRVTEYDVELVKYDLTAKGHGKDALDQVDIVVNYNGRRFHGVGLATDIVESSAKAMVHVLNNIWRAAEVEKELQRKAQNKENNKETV

[7] = target: Citrobacter freundii MGH 56 isopropylmalate synthase (Gene Accession No. KDF09799, SEQ ID NO: 1) variant 1466, G210A/A214S/H97A/S139G/N167G/P169A/G462D (Citrobacter freundii, UniProt A0A0D7LMP4, A214S/G210A/G462D/H97A/N167G/P169A/S139G); format: biochemical; conditions: acetyl-CoA 0-10 mM, 2-ketooctanoate 2 mM, pH 7.5, 30° C.
Sequence of Citrobacter freundii MGH 56 isopropylmalate synthase (Gene Accession No. KDF09799, SEQ ID NO: 1) variant 1466, G210A/A214S/H97A/S139G/N167G/P169A/G462D (A0A0D7LMP4 entry or part of it A214S/G210A/G462D/H97A/N167G/P169A/S139G): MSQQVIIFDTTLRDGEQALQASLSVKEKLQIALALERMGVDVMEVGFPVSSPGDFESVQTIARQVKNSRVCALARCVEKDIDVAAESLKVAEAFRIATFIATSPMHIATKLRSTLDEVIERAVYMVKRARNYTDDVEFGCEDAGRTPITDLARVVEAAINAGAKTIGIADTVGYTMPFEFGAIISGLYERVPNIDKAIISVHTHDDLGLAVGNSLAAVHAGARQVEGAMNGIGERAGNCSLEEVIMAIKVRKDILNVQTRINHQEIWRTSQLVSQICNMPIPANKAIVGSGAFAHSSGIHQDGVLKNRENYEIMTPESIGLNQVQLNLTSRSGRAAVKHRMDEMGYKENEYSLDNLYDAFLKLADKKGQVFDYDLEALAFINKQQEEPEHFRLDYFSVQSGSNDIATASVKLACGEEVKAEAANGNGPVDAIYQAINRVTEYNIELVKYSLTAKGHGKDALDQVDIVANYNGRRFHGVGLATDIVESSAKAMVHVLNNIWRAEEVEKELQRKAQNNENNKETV

[8] = tested on: CC(=O)SCCNC(=O)CCNC(=O)[C@H](O)C(C)(C)COP(=O)(O)OP(=O)(O)OC[C@H]1O[C@@H](n2cnc3c(N)ncnc32)[C@H](O)[C@@H]1OP(=O)(O)O; assay: purified protein, by the assay type; conditions: pH 7.5; 30.0 °C
CCCCCCC(=O)C(=O)O = assay: purified protein, by the assay type; conditions: pH 7.5; 30.0 °C
[9] = substrate: CC(=O)SCCNC(=O)CCNC(=O)[C@H](O)C(C)(C)COP(=O)(O)OP(=O)(O)OC[C@H]1O[C@@H](n2cnc3c(N)ncnc32)[C@H](O)[C@@H]1OP(=O)(O)O; assay: Kinetic evaluation of isopropylmalate synthase construct 614 (DTNB/CoASH assay); format: biochemical, E. coli; conditions: other: acetyl-CoA 0-10 mM, 2-ketooctanoate 2 mM, pH 7.5, 30° C.
Method: (§1) Codons of 13 additional amino acids that included six histidine's were fused upstream of the codon of Met-1 of each IPMS gene sequence. Such a modification allowed expression of a His-tagged IPMS having 13 additional amino acids on the N-terminus. To the resulting modified gene, additional bases were added to introduce a NcoI and a SacI restriction site at the 5′- and 3′-end, respectively, for cloning purposes. The whole DNA sequence was chemically synthesized and cloned into the E. coli expression vector, pETDuet-1 at the NcoI and SacI sites by SGI Inc. His-tagged IPMSs were heterologously expressed in E. coli BL21 (DE3) cells and purified using Co-NTA chromatography. It is noted that none of the Sequence Listings included herein show the histidine-tag that is used, which in this case is […]
(§2) For expressing isopropylmalate synthases and its variants, competent cells of E. coli BL21(DE3) cells (acquired from EMD Biosciences) were transformed using standard procedures with the pETDuet expression vector containig their gene sequences. Cells harboring the expression vector were selected on LB agar plates containing 50 μg/mL of ampicillin. A starter culture was started by transferring a single colony of transformant into 50 mL of LB medium containing 100 μg/mL of ampicillin and incubated at 37° C. with shaking at 220 rpm overnight. On the next day, 7 mL of starter culture was inoculated into 800 mL of Terrific Broth (TB) and the culture was incubated at 37° C. until it reached an OD600 nm of 0.5. Isopropyl β-D-1-thiogalacto-pyranoside (IPTG) at a final concentration of 1 mM was added to induce the expression of the isopropylmalate synthase or its variant and the culture was transferred to a 15° C. incubator for 16 hours (h). At the end of 16 h, the culture was centrifuged at 8000 revolutions per minute (rpm) to pelletize the cells. The cell pellet was stored at −80° C. overnight before purification.
(§3) For isolation and purification of the enzyme, cell pellet taken from 400 mL of expression culture was suspended in B-PER reagent (Thermo Fisher Scientific, Inc., Rockford, Ill.) containing 1 μg/mL of DNAse (Thermo Fisher Scientific, Inc., Rockford, Ill.), 1 μg/mL of lysozyme (Thermo Fisher Scientific, Inc., Rockford, Ill.), 1 millimolar (mM) of dithiothreitol, and protease inhibitor cocktail (RPI Corp., Mount Prospect, Ill.). The suspension was rocked gently for 30 minutes (min) at room temperature and centrifuged at 15,000 times gravity (×g) for 20 min to pelletize cell debris. The supernatant was separated and incubated with 5 mL of Co-NTA resin (Thermo Fisher Scientific, Inc., Rockford, Ill.) that had been pre-equilibrated with an equilibration buffer (50 mM sodium phosphate, pH 8.0, containing 300 mM sodium chloride, 20 mM imidazole, 50 μL protease inhibitor cocktail, and 15% glycerol). Following an incubation period of 1 h at 4° C., the enzyme bound resin was washed with 5 volumes of equilibration buffer. Isopropylmalate synthase or its variants were eluted from the Co-NTA resin with equilibration buffer containing 200 mM imidazole. The eluted proteins were dialyzed against phosphate buffered saline and stored as a 20% glycerol solution at −20° C.
(§4) The evaluation of the LeuA variants was performed in two steps using the high-throughput enzyme assay described below. Initially, all the variants were tested for activity against a single high concentration of 2-KBut, 2-KHex, and 2-KOct. The spectrophotometric isopropylmalate synthase enzyme assay reported by Marcheschi et al (Marcheschi, R. J.; Li, H.; Zhang, K.; Noey, E. L.; Kim, S.; Chaubey, A.; Houk, K. N.; Liao, J. C. A synthetic recursive “+1” pathway for carbon chain elongation. ACS chemical biology 2012, 7, 689-697) was adapted into a high-throughput format in 96-well plates for the kinetic evaluation of the isopropylmalate synthase variants (shown in Table 1). […]

[10] = substrate: CCCCCCC(=O)C(=O)O; assay: as above; format: biochemical, E. coli; conditions: other: 2-ketooctanoate 0-3.2 mM, acetyl-CoA 2 mM, pH 7.5, 30° C.
Method: as §1, §2, §3, §4

[11] = 2-ketooctanoate 0-3.2 mM, acetyl-CoA 2 mM
[12] = acetyl-CoA 0-10 mM, 2-ketooctanoate 2 mM

## CCCCCCC(=O)C(=O)O [2-Ketooctanoic acid, 2-ketooctanoic acid]
[1]; [11]
  kcat (2-ketooctanoic acid): 3.5 ± 0.0583 s⁻¹
  kcat/KM (2-ketooctanoic acid): 20620 ± 983 M⁻¹ s⁻¹
[2]; [11]
  kcat (2-ketooctanoic acid): 0.205 ± 0.0083 s⁻¹
  kcat/KM (2-ketooctanoic acid): 2930 ± 300 M⁻¹ s⁻¹
[3]; [11]
  kcat (2-ketooctanoic acid): 2.47 ± 0.083 s⁻¹
  kcat/KM (2-ketooctanoic acid): 26450 ± 1970 M⁻¹ s⁻¹
[4]; vs E. coli construct 614
  % more efficient than construct 614 in capturing 2-ketooctanoate (kcat/KM): 30-40%
[4]; vs parent 1409
  fold more efficient than parent construct 1409 in capturing 2-ketooctanoate (kcat/KM): 9 fold
[5]; [11]
  kcat (2-ketooctanoic acid): 4.12 ± 0.09 s⁻¹
  kcat/KM (2-ketooctanoic acid): 23550 ± 983 M⁻¹ s⁻¹
[6]; [11]
  kcat (2-ketooctanoic acid): 2.8 ± 0.065 s⁻¹
  kcat/KM (2-ketooctanoic acid): 22580 ± 983 M⁻¹ s⁻¹

## CC(=O)SCCNC(=O)CCNC(=O)[C@H](O)C(C)(C)COP(=O)(O)OP(=O)(O)OC[C@H]1O[C@@H](n2cnc3c(N)ncnc32)[C@H](O)[C@@H]1OP(=O)(O)O [acetyl CoA, acetyl coenzyme A]
[1]; [12]
  kcat (acetyl CoA): 3.43 ± 0.267 s⁻¹
[2]; [12]
  kcat (acetyl CoA): 0.118 ± 0.02 s⁻¹
[3]; [12]
  kcat (acetyl CoA): 5.2 ± 0.25 s⁻¹
[7]
  kcat (acetyl CoA): 0.4 ± 0.04 s⁻¹
[5]; [12]
  kcat (acetyl CoA): 3.83 ± 0.083 s⁻¹
[6]; [12]
  kcat (acetyl CoA): 2.35 ± 0.083 s⁻¹

## Citrobacter freundii MGH 56 isopropylmalate synthase (Gene Accession No. KDF09799, SEQ ID NO: 1) variant 1409, H97A/S139G/N167G/P169A/G462D (Citrobacter freundii; G462D/H97A/N167G/P169A/S139G)
[8]
  Km: 450 ± 240 µM
CCCCCCC(=O)C(=O)O
  Km: 64 ± 9 µM

## Citrobacter freundii MGH 56 isopropylmalate synthase (Gene Accession No. KDF09799, SEQ ID NO: 1) variant 1467, G181A/A182G/G210A/A214S/H97A/S139G/N167G/P169A/G462D (Citrobacter freundii; A182G/A214S/G181A/G210A/G462D/H97A/N167G/P169A/S139G)
CCCCCCC(=O)C(=O)O
  Km: 92 ± 9 µM

## Enterobacter cloacae isopropylmalate synthase (Gene Accession No. WP_014830637, SEQ ID NO: 2) variant 1414, H97A/S139G/N167G/P169A/G462D (Enterobacter cloacae subsp. cloacae ATCC 13047; G462D/H97A/N167G/P169A/S139G)
CCCCCCC(=O)C(=O)O
  Km: 124 ± 8 µM

## Enterobacter cloacae isopropylmalate synthase (Gene Accession No. WP_014830637, SEQ ID NO: 2) variant 1457, M255L/R260A/N264Q/H97A/S139G/N167G/P169A/G462D (Enterobacter cloacae subsp. cloacae ATCC 13047; G462D/H97A/M255L/N167G/N264Q/P169A/R260A/S139G)
CCCCCCC(=O)C(=O)O
  Km: 176 ± 9 µM

## Enterobacter cloacae isopropylmalate synthase (Gene Accession No. WP_014830637, SEQ ID NO: 2) variant 1460, D348E/D350E/M353L/Q355N/H97A/S139G/N167G/P169A/G462D (Enterobacter cloacae subsp. cloacae ATCC 13047; D348E/D350E/G462D/H97A/M353L/N167G/P169A/Q355N/S139G)
CCCCCCC(=O)C(=O)O
  Km: 170 ± 7 µM

B1: E. coli isopropylmalate synthase (LeuA, Gene Accession No. EG11226) variant 614, H97A/S139G/N167G/P169A/G462D (Escherichia coli K-12; … (protein)
chain: MSQQVIIFDTTLRDGEQALQASLSVKEKLQIALALERMGVDVMEVGFPVSSPGDFESVQTIARQVKNSRVCALARCVEKDIDVAAESLKVAEAFRIATFIATSPMHIATKLRSTLDEVIERAIYMVKRARNYTDDVEFGCEDAGRTPIADLARVVEAAINAGATTIGIADTVGYTMPFEFAGIISGLYERVPNIDKAIISVHTHDDLGLAVGNSLAAVHAGARQVEGAMNGIGERAGNCSLEEVIMAIKVRKDILNVHTAINHQEIWRTSQLVSQICNMPIPANKAIVGSGAFAHSSGIHQDGVLKNRENYEIMTPESIGLNQIQLNLTSRSGRAAVKHRMDEMGYKESEYNLDNLYDAFLKLADKKGQVFDYDLEALAFIGKQQEEPEHFRLDYFSVQSGSNDIATAAVKLACGEEVKAEAANGNGPVDAVYQAINRITEYNVELVKYSLTAKGHGKDALDQVDIVANYNGRRFHGVGLATDIVESSAKAMVHVLNNIWRAAEVEKELQRKAQHNENNKETV
notes: His-tag (13 additional amino acids, six histidines) (N); made in house; host or cells: E. coli BL21 (DE3)
[9]
  Km: 830 ± 50 µM
  kcat: 4.4 ± 0.133 s⁻¹
  kcat/Km: 5370 ± 383 M⁻¹ s⁻¹
[10]
  Km: 250 ± 35 µM
  kcat: 4.53 ± 0.3 s⁻¹
  kcat/Km: 18600 ± 1950 M⁻¹ s⁻¹
